Laboratory results as given in patent US20250320206A1, “STAT6 DEGRADERS” (Gilead Sciences, Inc., priority 2024, published 2025).

Experiments:
STAT6 = target: T1, STAT6 (Homo sapiens, UniProt P42226); test: Stat6 Degrader Assay (HiBiT based, HeLa LgBiT clone 4.14); format: cell-based; conditions: HeLa LgBiT clone 4.14 HiBiT-STAT6, 4-24 h incubation; values given for compounds with >80% Emax; geometric mean; read-out: STAT6 degradation DC50
T1 construct: These cells express endogenous STAT6; host or cells: HeLa LgBiT clone 4.14
T1 sequence (P42226 1-847): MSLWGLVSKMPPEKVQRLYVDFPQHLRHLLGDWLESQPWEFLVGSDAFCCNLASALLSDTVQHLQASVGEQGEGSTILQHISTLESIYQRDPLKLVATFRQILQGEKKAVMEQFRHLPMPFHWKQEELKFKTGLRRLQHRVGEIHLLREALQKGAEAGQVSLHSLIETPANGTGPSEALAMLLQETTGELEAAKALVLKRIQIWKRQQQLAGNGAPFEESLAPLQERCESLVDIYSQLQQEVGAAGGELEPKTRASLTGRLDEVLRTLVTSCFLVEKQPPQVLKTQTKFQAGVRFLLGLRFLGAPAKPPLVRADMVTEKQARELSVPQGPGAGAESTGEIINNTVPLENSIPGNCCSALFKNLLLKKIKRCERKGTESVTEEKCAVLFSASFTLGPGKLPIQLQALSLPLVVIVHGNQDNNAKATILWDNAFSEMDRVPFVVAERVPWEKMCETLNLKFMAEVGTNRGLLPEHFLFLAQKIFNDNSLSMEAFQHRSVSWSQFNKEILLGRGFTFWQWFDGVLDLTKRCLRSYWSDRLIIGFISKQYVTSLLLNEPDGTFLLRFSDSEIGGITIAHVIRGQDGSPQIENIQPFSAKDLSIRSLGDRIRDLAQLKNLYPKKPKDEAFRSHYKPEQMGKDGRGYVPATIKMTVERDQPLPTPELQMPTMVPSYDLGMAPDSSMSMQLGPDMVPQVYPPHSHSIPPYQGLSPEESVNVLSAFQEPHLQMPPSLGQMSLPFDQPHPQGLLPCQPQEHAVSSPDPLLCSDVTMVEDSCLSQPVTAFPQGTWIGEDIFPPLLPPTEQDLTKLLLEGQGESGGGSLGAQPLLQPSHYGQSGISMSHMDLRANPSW
Outline: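 HeLa LgBiT clone 4.14 cells with CRISPR HiBiT-tagged endogenous STAT6, 5000 cells/well, compound dosed then incubated 4-24 h at 37° C, 5% CO2. Nano-Glo substrate added, 0.5 h, luminescence read as non-degraded STAT6. Terfenadine 50 μM (cell kill) defines 100% degradation.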

[1] = tested on: Eotaxin-3 release in human whole blood stimulated with IL-4; test: Human Whole Blood Eotaxin-3 Assay (IL-4 stimulated eotaxin-3 release); format: cell-based; conditions: IL-4 stimulation, 48 h, values given for compounds with >80% Emax, geometric mean
Outline: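 Lithium-heparin human whole blood preincubated 2 h at 37° C with 4-fold serially diluted compounds (0.5% DMSO), then stimulated with recombinant human IL-4 ([…]) for 48 h. Eotaxin-3 (CCL26) in supernatant quantified by MSD immunoassay.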

Row | SMILES | DC50 (STAT6) | EC50 [1]
1 | CNc1ccn(-c2ccnc3c2cc([C@H](C)N2CC=C(c4c(C)cc(C(=O)N(C)c5ccc(C6CCN(Cc7ccc8c(c7)n(C)c(=O)n8C7CCC(=O)NC7=O)CC6)nc5)cc4F)CC2)n3C)c(=O)c1 (stereo partly drawn) [Example 3u231, N-(6-(1-((1-(2,6-dioxopiperidin-3-yl)-3-methyl-2-oxo-2,3-dihydro-1H-benzo[d]-imidazol-5-yl)methyl)piperidin-4-yl)pyridin-3-yl)-3-fluoro-N,5-dimethyl-4-(1-((S)-1-(1-methyl-4-(4-(methylamino)-2-oxopyridin-1 (2H)-yl)-1H-pyrrolo[2,3-b]pyridin-2-yl)ethyl)-1,2,3,6-tetrahydropyridin-4-yl)benzamide] | 0.1 nM | 0.8 nM
2 | C[C@H]1CN(Cc2ccc3c(c2)C2(CC2)C(=O)N3[C@@H]2CCC(=O)NC2=O)CCN1CC1CCN(C(=O)c2cc(F)c(C3=CCN([C@@H](C)c4cc5c(-n6cc(F)c7c(c6=O)CCN7)ccnc5n4C)CC3)c(F)c2)CC1 [Example 3u127, (R)-3-(5′-(((S)-4-((1-(3,5-difluoro-4-(1-((S)-1-(4-(7-fluoro-4-oxo-1,2,3,4-tetrahydro-5H-pyrrolo[3,2-c]pyridin-5-yl)-1-methyl-1H-pyrrolo[2,3-b]pyridin-2-yl)ethyl)-1,2,3,6-tetrahydropyridin-4-yl)benzoyl)piperidin-4-yl)methyl)-3-methylpiperazin-1-yl)methyl)-2′-oxospiro[cyclopropane-1,3′-indolin]-1′-yl)piperidine-2,6-dione] | 5.4 nM | 14.8 nM
3 | CNc1cc(=O)n(-c2ccnc3c2cc(CN2CC=C(c4c(F)cc(C(=O)N5CCC(CN6CCN(Cc7ccc8c(c7)n(C7CC7)c(=O)n8C7CCC(=O)NC7=O)C[C@@H]6C)CC5)cc4F)CC2)n3C)cc1F (stereo partly drawn) [Example 3u213, 3-(3-cyclopropyl-5-(((S)-4-((1-(3,5-difluoro-4-(1-((4-(5-fluoro-4-(methylamino)-2-oxopyridin-1 (2H)-yl)-1-methyl-1H-pyrrolo[2,3-b]pyridin-2-yl)methyl)-1,2,3,6-tetrahydropyridin-4-yl)benzoyl)piperidin-4-yl)methyl)-3-methylpiperazin-1-yl)methyl)-2-oxo-2,3-dihydro-1H-benzo[d]imidazol-1-yl)piperidine-2,6-dione] | 8.6 nM | 13.2 nM
4 | CN(C(=O)c1cc(F)c(C2CCN(Cc3cc4c(-n5cc(F)c6c(c5=O)CCN6)ccnc4n3C)CC2)c(F)c1)c1ccc(C2CCN(Cc3ccc4c(c3)n(C)c(=O)n4C3CCC(=O)NC3=O)CC2)cc1 (stereo not drawn) [Example 3u126, N-(4-(1-((1-(2,6-dioxopiperidin-3-yl)-3-methyl-2-oxo-2,3-dihydro-1H-benzo[d]imidazol-5-yl)methyl)piperidin-4-yl)phenyl)-3,5-difluoro-4-(1-((4-(7-fluoro-4-oxo-1,2,3,4-tetrahydro-5H-pyrrolo[3,2-c]pyridin-5-yl)-1-methyl-1H-pyrrolo[2,3-b]pyridin-2-yl)methyl)piperidin-4-yl)-N-methylbenzamide] | 0.4 nM | 0.2 nM
5 | CNc1cc(=O)n(-c2ccnc3c2cc(CN2CCC(c4c(F)cc(C(=O)N5CCC(CN6CCN(Cc7ccc8c(c7)n(C)c(=O)n8[C@@H]7CCC(=O)NC7=O)C[C@@H]6C)CC5)cc4F)CC2)n3C)cc1F (single isomer, unassigned) [Example 3u62] | 1.2 nM | 1.2 nM
6 | CNc1ccn(-c2ccnc3c2cc(CN2CCC(c4c(F)cc(C(=O)N5CCC(CN6CCN(Cc7ccc8c(c7)C(C)(C)C(=O)N8C7CCC(=O)NC7=O)CC6)CC5)cc4F)CC2)n3C)c(=O)c1 (stereo not drawn) [Example 3u16, 3-(5-((4-((1-(3,5-difluoro-4-(1-((1-methyl-4-(4-(methylamino)-2-oxopyridin-1 (2H)-yl)-1H-pyrrolo[2,3-b]pyridin-2-yl)methyl)piperidin-4-yl)benzoyl)piperidin-4-yl)methyl)piperazin-1-yl)-methyl)-3,3-dimethyl-2-oxoindolin-1-yl)piperidine-2,6-dione] | 11.2 nM | 12.1 nM
7 | CNc1ccn(-c2ccnc3c2cc([C@H](C)N2CC=C(c4c(C)cc(C(=O)N5CCC(CN6CCN(c7cc8c(cc7F)n([C@@H]7CCC(=O)NC7=O)c(=O)n8C)CC6)CC5)cc4F)CC2)n3C)c(=O)c1 (single isomer, unassigned) [Example 3u308] | 0.7 nM | 1.3 nM
8 | CNc1ccn(-c2ccnc3c2cc([C@H](C)N2CC=C(c4c(C)cc(C(=O)N5CCC(CN6CCN(Cc7ccc8c(c7)C(C)(C)C(=O)N8[C@@H]7CCC(=O)NC7=O)C[C@@H]6C)CC5)cc4F)CC2)n3C)c(=O)c1 (single isomer, unassigned) [Example 3u177] | 1.8 nM | 3.1 nM
9 | CNc1ccn(-c2ccnc3c2cc([C@H](C)N2CC=C(c4c(C)cc(C(=O)N5CCC(CN6CCN(Cc7cc8c(cc7F)n([C@@H]7CCC(=O)NC7=O)c(=O)n8C)C[C@@H]6C)CC5)cc4F)CC2)n3C)c(=O)c1 (single isomer, unassigned) [Example 3u209] | 7.3 nM | 0.7 nM

Further compounds by falling DC50 (STAT6), results first:

Row | DC50 (STAT6) | EC50 [1] | SMILES
10 | 21.7 nM | 37.1 nM | CNc1cc(=O)n(-c2ccnc3c2cc([C@H](C)N2CC=C(c4c(C)cc(C(=O)N5CCC(CN6CCN(c7ccc8c(c7)C(C)(C)C(=O)N8C7CCC(=O)NC7=O)CC6)CC5)cc4F)CC2)n3C)cc1F (stereo partly drawn) [Example 3u303, 3-(5-(4-((1-(3-fluoro-4-(1-((S)-1-(4-(5-fluoro-4-(methylamino)-2-oxopyridin-1 (2H)-yl)-1-methyl-1H-pyrrolo[2,3-b]pyridin-2-yl)ethyl)-1,2,3,6-tetrahydropyridin-4-yl)-5-methylbenzoyl)piperidin-4-yl)methyl)piperazin-1-yl)-3,3-dimethyl-2-oxoindolin-1-yl)piperidine-2,6-dione]
11 | 9.8 nM | 45.9 nM | CNc1cc(=O)n(-c2ccnc3c2cc(CN2CC=C(c4c(F)cc(C(=O)N5CCC(CN6CCN(Cc7ccc8c(c7)C(C)(C)C(=O)N8[C@H]7CCC(=O)NC7=O)C[C@@H]6C)CC5)cc4F)CC2)n3C)cc1F (single isomer, unassigned) [Example 3u78]
12 | 4.1 nM | 14.6 nM | Cc1cc(C(=O)N2CCC(CN3CCN(Cc4ccc5c(c4)C(C)(C)C(=O)N5C4CCC(=O)NC4=O)C[C@@H]3C)CC2)cc(F)c1C1=CCN([C@@H](C)c2cc3c(-n4cc(F)c(N)cc4=O)ccnc3n2C)CC1 (stereo partly drawn) [Example 3u169, 3-(5-(((S)-4-((1-(4-(1-((S)-1-(4-(4-amino-5-fluoro-2-oxopyridin-1 (2H)-yl)-1-methyl-1H-pyrrolo[2,3-b]pyridin-2-yl)ethyl)-1,2,3,6-tetrahydropyridin-4-yl)-3-fluoro-5-methylbenzoyl)piperidin-4-yl)methyl)-3-methylpiperazin-1-yl)methyl)-3,3-dimethyl-2-oxoindolin-1-yl)piperidine-2,6-dione]
13 | 3.4 nM | 16.3 nM | CNc1ccn(-c2ccnc3c2cc([C@H](C)N2CC=C(c4c(C)cc(C(=O)N5CCC(CN6CCN(Cc7cc8c(cc7F)N(C7CCC(=O)NC7=O)C(=O)C8(C)C)C[C@@H]6C)CC5)cc4F)CC2)n3C)c(=O)c1 (stereo partly drawn) [Example 3u181, 3-(6-fluoro-5-(((S)-4-((1-(3-fluoro-5-methyl-4-(1-((S)-1-(1-methyl-4-(4-(methyl-amino)-2-oxopyridin-1 (2H)-yl)-1H-pyrrolo[2,3-b]pyridin-2-yl)ethyl)-1,2,3,6-tetrahydropyridin-4-yl)-benzoyl)piperidin-4-yl)methyl)-3-methylpiperazin-1-yl)methyl)-3,3-dimethyl-2-oxoindolin-1-yl)-piperidine-2,6-dione]
14 | 2.7 nM | 2.9 nM | CNc1ccn(-c2ccnc3c2cc([C@H](C)N2CC=C(c4c(C)cc(C(=O)N5CCC(CN6CCN(c7ccc8c(c7)n(C7CC7)c(=O)n8C7CCC(=O)NC7=O)CC6)CC5)cc4F)CC2)n3C)c(=O)c1 (stereo partly drawn) [Example 3u287, 3-(3-cyclopropyl-5-(4-((1-(3-fluoro-5-methyl-4-(1-((S)-1-(1-methyl-4-(4-(methyl-amino)-2-oxopyridin-1 (2H)-yl)-1H-pyrrolo[2,3-b]pyridin-2-yl)ethyl)-1,2,3,6-tetrahydropyridin-4-yl)benzoyl)piperidin-4-yl)methyl)piperazin-1-yl)-2-oxo-2,3-dihydro-1H-benzo[d]imidazol-1-yl)-piperidine-2,6-dione]
15 | 0.6 nM | 1 nM | Cc1cc(C(=O)N2CCC(CN3CCN(Cc4cc5c(cc4F)n([C@H]4CCC(=O)NC4=O)c(=O)n5C)CC3)CC2)cc(F)c1C1=CCN([C@@H](C)c2cc3c(-n4ccc5c(c4=O)CCN5)ccnc3n2C)CC1 (single isomer, unassigned) [Example 3u75]
